# Assay results: US20210290580A1, “New use of carbamate ß phenylethanolamine analogues for enhancing intracellular clearance of LDL cholesterol and for combining therapy with statins to enhance the efficacy and reduce adverse effects” (priority 2018, published 2021)
# What was measured:
# LDL receptors = assay: LDL receptor expression, anti-LDLR immunofluorescence in liver cells; assay type: cell-based, Mouse; conditions: 24 hours; for Up-regulating of LDL receptors (Intensity of fluoresces) MEAN %: hepatic (AML12) cells, control = 100
# Description: Cells were incubated with florescence labeled LDL to study the up-taking and metabolite of LDL cholesterol by the cells. LDL specific antibody were used to study LDL receptors expressed by the cells. […] After 24 hours of treatments, the cells were washed and fixed with paraformaldehyde. Cells were then incubated with anti-LDLR primary antibody with 1:200 dilution at room temperature for 4 hours. After washed, the second antibody Alexa Fluor 488 with 1:200 dilutions was added and incubated at room temperature for 2 hours. The cells were washed again before examined under fluorescent microscope. The fluorescence anti-body bound LDL receptors in green and either bound or internalized fluoresces labeled LDL in red were examined separately or after merging. Fluorescent microscope equipped with a digital camera (Axio Observer 7). Computer software was used to quantify the intensity of fluorescence, which is correlated with the amount of LDL and LDL receptors bounded to antibodies.
# Mouse liver AML12 cells [1] = assay: Up-taking of fluorescence labeled LDL by liver cells; assay type: cell-based; conditions: 10 μM and 20 μM, 24 hours, compared between groups
# Description: Mouse liver AML12 cells were seeded in 24 well plates in DMEM/F12 and supplemented with 10% heat-inactivated fetal bovine serum. Cells were incubated with florescence labeled LDL to study the up-taking and metabolite of LDL cholesterol by the cells. LDL specific antibody were used to study LDL receptors expressed by the cells. […] The fluorescence anti-body bound LDL receptors in green and either bound or internalized fluoresces labeled LDL in red were examined separately or after merging. Fluorescent microscope equipped with a digital camera (Axio Observer 7). Computer software was used to quantify the intensity of fluorescence, which is correlated with the amount of LDL and LDL receptors bounded to antibodies.
# Human liver HepG2 cells = assay: Intracellular cholesterol content in HepG2 cells loaded with LDL (Total Cholesterol Assay Kit); assay type: cell-based; conditions: LDL 40 μg/ml, 24 hours, LDL control = 100
# Description: Human liver HepG2 cells were seeded in six well plates in DMEM/F12 supplemented with 10% heat-inactivated fetal bovine serum. Cells were then treated with different doses of R-bambuterol (R-BM) in the present of LDL (40 μg/ml). After 24 hours of incubation, total intracellular and extracellular cholesterol content were determined using Total Cholesterol Assay Kit E105 (Applygen Technologies Inc., Beijing, China) according to the manufacturer's protocol.
# Mouse liver AML12 cells [2] = assay: Intracellular cholesterol content in AML12 cells loaded with LDL; assay type: cell-based; conditions: for Intracellular cholesterol MEAN % (Synergistic Effects of Combining R-bambuterol and Statin): 10 μM (each drug 10 μM in the combination), LDL 40 μg/ml, AML12 cells, LDL Ctrl = 100; for Reduction of intercellular cholesterol, in words: 10 μM, Mouse liver AML12 cells
# Description: Cells were then treated with different doses of R-bambuterol (R-BM) in the present of LDL (40 μg/ml). After 24 hours of incubation, total intracellular and extracellular cholesterol content were determined using Total Cholesterol Assay Kit E105 (Applygen Technologies Inc., Beijing, China) according to the manufacturer's protocol. The intracellular cholesterol is similar in control and LDL groups.
# [3] = tested on: Pulmonary artery smooth muscle cell (PASMC)
# Description: Cells were cultivated for 24 hours at room temperature. The cells then replaced again with FBS-free medium containing 10% CCK-8 reagent and cultivated for 3 hours in the dark.
# A Multi-function micro plate reader (TriStar2S LB942) was used to measure the cell viability.
# Cells added no drugs (0 μM) were used as control.
# [4] = 20 μM (each drug 20 μM in the combination)
SMILES,Up-regulating of LDL receptors (Intensity of fluoresces) MEAN % (LDL receptors; 10 μM),Up-regulating of LDL receptors (Intensity of fluoresces) MEAN % (LDL receptors; [4]),Increase in LDL receptors expression compared with statin treated groups (LDL receptors; AML12 cells),Bound and intracellular fluorescence labeled LDL (Mouse liver AML12 cells [1]),Reduction of intercellular LDL cholesterol MEAN % (Human liver HepG2 cells; 5 μM),Reduction of intercellular LDL cholesterol MEAN % (Human liver HepG2 cells; 10 μM),Reduction of intercellular LDL cholesterol MEAN % (Human liver HepG2 cells; 20 μM),Reduction of intercellular LDL cholesterol MEAN % (Human liver HepG2 cells; 40 μM),Reduction of intercellular LDL cholesterol MEAN % (Human liver HepG2 cells; 80 μM),Intracellular cholesterol MEAN % (Synergistic Effects of Combining R-bambuterol and Statin) (Mouse liver AML12 cells [2]),"Reduction of intercellular cholesterol, in words (Mouse liver AML12 cells [2])","Toxicity to the viability of PASMC, in words [3]"
"CN(C)C(=O)Oc1cc(OC(=O)N(C)C)cc(C(O)CNC(C)(C)C)c1 (stereo not shown) [R-BM, R-bambuterol]",202.9%,337.2%,twice as much as seen in statin treated groups,significantly more bound and intracellular fluorescence labeled LDL,94.07%,69.26%,28.54%,36.04%,21.02%,94.5%,less reduction of intercellular cholesterol,no toxicity
"CC(C)c1c(C(=O)Nc2ccccc2)c(-c2ccccc2)c(-c2ccc(F)cc2)n1CC[C@@H](O)C[C@@H](O)CC(=O)O [Statin, Atorvastatin]",159.1%,140.2%,–,–,–,–,–,–,–,95.3%,little effects on intercellular cholesterol,–
